# Values joined by “and” are separate entries in the source; they are usually repeats but may differ in a detail not shown here. Equal entries are not always repeated. “Also recorded” adds a separate entry of the source. Structures can show the parent of a compound that is named as a salt. Where two headings read alike, the source gives them in different places.
# Columns and labels:
# [1] = tested on: optic nerve; experiment: Compound action potential of isolated optic nerves perfused with ATP; parameters: species or system C57BL6 mice; settings: ATP 10 mM, 3h (180 min), 37°C, compared to matched controls
# [2] = tested on: optic nerve oligodendrocytes; experiment: Whole-cell recording of ischaemic inward current in cultured oligodendrocytes (chemical ischaemia); type: cell-based, Sprague-Dawley rats
# Method: After 2-4 days in vitro, cultures were composed of at least 98% 04/Ga1C^+ cells. No microglial cells were detected in these cultures. […] Cell death was determined 24h later using calcein-AM (Invitrogen) as previously described (Matute et al., 1997 Proc Natl Acad Sci U S A 94:8830-8835.). Antagonists were present during in vitro ischaemia and during the next 24h incubation period. […] Calcein was used to quantify the number of cells within the reading field. Fluorescence was measured as above and values were plotted as the percentage of DCFDA/calcein red-orange fluorescence versus control. […] Molecular Probes). […] The changes in the membrane potential were calculated as the red (emission at 590)/green (emission at 520) ratio in each condition and results were normalized to control. Whole cell recordings were performed at room temperature and at a holding membrane potential of -70 mV. Extracellular bath solution with a pH of 7.3 contained (in mM): […] Patch clamp pipettes (3-5 MΩ) were filled with internal solution at a pH of 7.3 containing (in mM): CsCI 140, CaC12 2, MgC12 2, HEPES 10, EGTA 11, Na-ATP 2. For electrophysiology monitoring, ischaemia was induced chemically by using the glycolytic blocker iodoacetate (1 mM) and the oxidative phosphorylation inhibitor antimycin (2.5 μM), and omitting glucose because recordings were performed in an open chamber where O2 can diffuse to the cells (Káradóttir et al., 2005). Recordings of ATP currents were performed in divalent cation-free extracellular solutions, obtained by omitting Ca^2+ and Mg^2+, to potentiate P2X-mediated responses (Matute et al., 1997 Proc Natl Acad Sci U S A 94:8830-8835.). […] Molecular Probes, Inc., Eugene, OR) in culture medium for 30 min at 37 °C. Experiments were carried out in a coverslip chamber continuously perfused with a buffer containing 20 mM HEPES, 2 mM CaC12, 10 mM glucose in HBSS at 1 ml/min. The perfusion chamber was mounted on the stage of a Zeiss inverted epifluorescence microscope (Axiovert 35), equipped with a 150 W xenon lamp Polychrome IV (TILL Photonics GMBH) and a Plan Neofluar 40x oil immersion objective (Zeiss, Germany). Cells were visualized with a high resolution digital B/W CCD camera (ORCA; Hamamatsu Photonics Iberica, Barcelona, Spain) and image acquisition and data analysis were carried out using the AquaCosmos software program (Hamamatsu Photonics Iberica). Images were acquired every 30 ms at 37°C and ischaemia was induced as above. […] At the end of the assay, in situ calibration was carried out with the successive addition of […] and 2M Tris/50 mM EGTA, pH 8.5. Data were analyzed with Excel and Prism software.
# [3] = tested on: optic nerve oligodendrocytes; experiment: Reactive oxygen species (DCFDA) after OGD in oligodendrocyte cultures; type: cell-based, Sprague-Dawley rats; settings: 1 h OGD; BBG 50 nM, PPADS 100 µM
# Method: (§1) Primary cultures of oligodendrocytes derived from optic nerves of 12 day-old Sprague-Dawley rats were obtained as previously described (Matute et al., 1997 Proc Natl Acad Sci U S A 94:8830-8835.).Cells were maintained at 37°C and 5% CO2 in a chemically defined medium (Matute et al., 1997 Proc Natl Acad Sci U S A 94:8830-8835.). After 2-4 days in vitro, cultures were composed of at least 98% 04/Ga1C^+ cells. No microglial cells were detected in these cultures. […] Cell death was determined 24h later using calcein-AM (Invitrogen) as previously described (Matute et al., 1997 Proc Natl Acad Sci U S A 94:8830-8835.). Antagonists were present during in vitro ischaemia and during the next 24h incubation period. […] Calcein was used to quantify the number of cells within the reading field. Fluorescence was measured as above and values were plotted as the percentage of DCFDA/calcein red-orange fluorescence versus control. The changes in mitochondrial membrane potential were monitored with 5,5',6,6'-tetrachloro-1,1',3,3'-tetraethylbenzimidazolcarbocyanine iodide (JC-1; Molecular Probes). […] The changes in the membrane potential were calculated as the red (emission at 590)/green (emission at 520) ratio in each condition and results were normalized to control.
# [4] = tested on: optic nerve oligodendrocytes; experiment: Mitochondrial membrane potential (JC-1) after OGD in oligodendrocyte cultures; type: cell-based, Sprague-Dawley rats; settings: 1 h OGD; BBG 50 nM, PPADS 100 µM
# Method: as §1
# [5] = tested on: optic nerve oligodendrocytes; experiment: Oxygen and glucose deprivation (OGD) cell death in oligodendrocyte cultures (calcein-AM); type: cell-based, Sprague-Dawley rats; settings: 1h OGD, calcein 24h later; PPADS 100 µM, BBG 50 nM, CNQX 30 µM, APV 100 µM, apyrase 20 U/ml, ARL67156 100 µM, CBX 20 µM, FFA 100 µM, MFQ 1 nM
# Method: Primary cultures of oligodendrocytes derived from optic nerves of 12 day-old Sprague-Dawley rats were obtained as previously described (Matute et al., 1997 Proc Natl Acad Sci U S A 94:8830-8835.).Cells were maintained at 37°C and 5% CO2 in a chemically defined medium (Matute et al., 1997 Proc Natl Acad Sci U S A 94:8830-8835.). After 2-4 days in vitro, cultures were composed of at least 98% 04/Ga1C^+ cells. No microglial cells were detected in these cultures. […] Cell death was determined 24h later using calcein-AM (Invitrogen) as previously described (Matute et al., 1997 Proc Natl Acad Sci U S A 94:8830-8835.). Antagonists were present during in vitro ischaemia and during the next 24h incubation period. […] To assay the levels of reactive oxygen species (ROS), cells were loaded with 40 µM 2',7'- dichlorodihyfluoresceindiacetate (DCFDA; Invitrogen) and 1 µM calcein red-orange (Molecular Probes) immediately after OGD. Calcein was used to quantify the number of cells within the reading field. Fluorescence was measured as above and values were plotted as the percentage of DCFDA/calcein red-orange fluorescence versus control. The changes in mitochondrial membrane potential were monitored with 5,5',6,6'-tetrachloro-1,1',3,3'-tetraethylbenzimidazolcarbocyanine iodide (JC-1; Molecular Probes). Immediately after OGD, cells were loaded with JC-1 (3 µM) at 37°C for 30 min. The changes in the membrane potential were calculated as the red (emission at 590)/green (emission at 520) ratio in each condition and results were normalized to control.
# [6] = tested on: AMPA and kainate receptors; experiment: Glutamate receptor agonist (AMPA, kainate) induced oligodendrocyte death (calcein fluorescence); type: cell-based, Sprague-Dawley rats; settings: AMPA (100 µM) + cyclothiazide (100 µM), or kainate (3 mM) + GYKI 53655 (50 µM); PPADS 100 µM, BBG 50 nM
# Method: as §1
# [7] = tested on: optic nerves; experiment: Optic nerve ischaemia (OGD), tissue damage by LDH release; parameters: species or system rats
# Method: After 1h OGD at 37°C, the medium was replaced with fresh solution containing glucose and equilibrated with 95% O2, 5% CO2 and the nerves were incubated for another 2h at 37°C to simulate reperfusion.
# [8] = tested on: optic nerve
# [9] = biological target: T1, P2X3 (Homo sapiens, UniProt P56373); settings: read-out: IC50 P2X3; cited from earlier work
# T1 sequence (P56373 1-397): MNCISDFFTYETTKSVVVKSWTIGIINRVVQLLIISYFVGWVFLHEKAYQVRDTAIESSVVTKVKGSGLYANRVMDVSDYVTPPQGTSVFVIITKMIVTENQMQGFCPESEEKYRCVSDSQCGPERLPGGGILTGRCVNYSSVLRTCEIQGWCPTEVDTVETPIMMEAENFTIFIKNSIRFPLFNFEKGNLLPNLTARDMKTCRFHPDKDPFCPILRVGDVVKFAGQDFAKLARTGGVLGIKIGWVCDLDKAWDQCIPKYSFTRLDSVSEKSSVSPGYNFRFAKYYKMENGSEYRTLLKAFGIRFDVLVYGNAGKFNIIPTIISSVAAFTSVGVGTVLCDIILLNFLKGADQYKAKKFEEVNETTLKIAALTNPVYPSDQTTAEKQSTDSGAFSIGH
# [10] = tested on: Pannexin hemichannels; settings: cited from earlier work
# [11] = biological target: T2, P2X4 (Homo sapiens, UniProt Q99571); settings: read-out: IC50 P2X4; cited from earlier work
# T2 sequence (Q99571 1-388): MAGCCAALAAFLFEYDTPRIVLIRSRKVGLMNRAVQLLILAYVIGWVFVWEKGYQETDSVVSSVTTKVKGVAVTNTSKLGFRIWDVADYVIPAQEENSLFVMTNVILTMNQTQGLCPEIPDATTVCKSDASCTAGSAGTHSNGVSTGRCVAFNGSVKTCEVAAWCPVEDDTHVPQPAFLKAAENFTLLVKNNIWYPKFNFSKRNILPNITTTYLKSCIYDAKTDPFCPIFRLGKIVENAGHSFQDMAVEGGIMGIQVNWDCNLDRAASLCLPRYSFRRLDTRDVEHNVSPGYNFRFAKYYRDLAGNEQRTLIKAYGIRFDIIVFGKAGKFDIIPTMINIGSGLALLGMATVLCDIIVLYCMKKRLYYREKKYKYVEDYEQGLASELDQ
# [12] = tested on: optic nerve oligodendrocytes; experiment: Ca2+ imaging (fura-2) of oligodendrocytes during chemical ischaemia; type: cell-based, Sprague-Dawley rats
# Method: After 2-4 days in vitro, cultures were composed of at least 98% 04/Ga1C^+ cells. No microglial cells were detected in these cultures. […] Cell death was determined 24h later using calcein-AM (Invitrogen) as previously described (Matute et al., 1997 Proc Natl Acad Sci U S A 94:8830-8835.). Antagonists were present during in vitro ischaemia and during the next 24h incubation period. […] Calcein was used to quantify the number of cells within the reading field. Fluorescence was measured as above and values were plotted as the percentage of DCFDA/calcein red-orange fluorescence versus control. […] Molecular Probes). […] The changes in the membrane potential were calculated as the red (emission at 590)/green (emission at 520) ratio in each condition and results were normalized to control. Whole cell recordings were performed at room temperature and at a holding membrane potential of -70 mV. Extracellular bath solution with a pH of 7.3 contained (in mM): […] Patch clamp pipettes (3-5 MΩ) were filled with internal solution at a pH of 7.3 containing (in mM): CsCI 140, CaC12 2, MgC12 2, HEPES 10, EGTA 11, Na-ATP 2. […] Data were analyzed with Excel and Prism software.
# [13] = biological target: T3, P2X7 (Homo sapiens, UniProt Q99572); settings: cited from earlier work
# T3 sequence (Q99572 1-595): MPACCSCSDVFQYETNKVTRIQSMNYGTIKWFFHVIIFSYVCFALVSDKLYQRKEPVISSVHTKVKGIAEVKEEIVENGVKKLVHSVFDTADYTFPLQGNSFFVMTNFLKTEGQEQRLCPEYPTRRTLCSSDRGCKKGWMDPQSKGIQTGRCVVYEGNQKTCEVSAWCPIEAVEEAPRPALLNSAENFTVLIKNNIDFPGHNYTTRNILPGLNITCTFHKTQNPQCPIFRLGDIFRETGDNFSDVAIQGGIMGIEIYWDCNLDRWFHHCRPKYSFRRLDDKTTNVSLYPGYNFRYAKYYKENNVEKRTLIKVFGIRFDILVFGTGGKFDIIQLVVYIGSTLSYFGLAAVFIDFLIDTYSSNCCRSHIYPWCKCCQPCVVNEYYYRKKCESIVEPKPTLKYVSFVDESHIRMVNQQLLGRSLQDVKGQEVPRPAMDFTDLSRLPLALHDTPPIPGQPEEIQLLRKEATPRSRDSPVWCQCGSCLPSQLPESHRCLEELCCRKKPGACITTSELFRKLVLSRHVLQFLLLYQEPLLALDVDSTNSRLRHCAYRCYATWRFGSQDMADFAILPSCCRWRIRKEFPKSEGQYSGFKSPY
structure (smiles),measurement,setting,value
Nc1ncnc2c1ncn2[C@@H]1O[C@H](COP(=O)(O)OP(=O)(O)OP(=O)(O)O)[C@@H](O)[C@H]1O [ATP],reduction in CAP area,[1],50% and 50.1 ± 10.5%
"CCOc1ccc(Nc2ccc(C(=C3C=CC(=[N+](CC)Cc4cccc(S(=O)(=O)[O-])c4)C=C3C)c3ccc(N(CC)Cc4cccc(S(=O)(=O)O)c4)cc3C)cc2)cc1 [BBG, Coomassie brilliant blue G]",OGD-induced currents,"[2]; BBG 50 nM, CNQX (30 µM) plus APV (100 µM) applied before the onset of ischemia",inhibited
same,OGD currents after drug application versus OGD currents before drug application,"[2]; after washing the antagonists out, average over BBG and PPADS, n= 15",134 ± 32%
same,ischaemic inward currents,"[2]; chemical ischaemia (iodoacetate, antimycin, no glucose), -70 mV, PPADS 100 µM, oATP 1 mM, BBG 50 nM",significantly reduced; also recorded: partial block
same,generation of radical oxygen species (ROS),[3],prevented
same,mitochondrial depolarization,[4],prevented
same,OGD-induced oligodendrocyte cell death,[5],significantly reduced
same,glutamate receptor-induced oligodendrocyte death,[6],did not significantly inhibit
same,ischaemia-induced damage to optic nerves (LDH release),"[7]; P28 rat optic nerves, 1h OGD + 2h reperfusion, PPADS 1 mM, BBG 50 nM, oATP 1 mM, apyrase 20 U/ml, MFQ 1 µM, CBX 100 µM, FFA 1 mM",prevented; also recorded: reduced
same,OGD-induced damage at all developmental stages,"[7]; premyelinating (P7), myelinating (P14) and mature (P28) optic nerves",decreased; also recorded: protected
same,recovery of axon function (CAP area) after the ischaemic insult,"[8]; 60 min after 1 h OGD, BBG 50 nM, o-ATP 1 mM",significantly improved
same,IC50,[9],> 10 µM
CC1(C)[C@@H](OC(=O)CCC(=O)O)CC[C@]2(C)[C@H]3C(=O)C=C4[C@@H]5C[C@@](C)(C(=O)O)CC[C@]5(C)CC[C@@]4(C)[C@]3(C)CC[C@@H]12 [Carbenoxolone disodium],IC50,[10],~5 µM
O=C(Nc1cccc(C(=O)Nc2ccc(S(=O)(=O)O)c3cc(S(=O)(=O)O)cc(S(=O)(=O)O)c23)c1)Nc1cccc(C(=O)Nc2ccc(S(=O)(=O)O)c3cc(S(=O)(=O)O)cc(S(=O)(=O)O)c23)c1 [NF023],IC50,[9],< 29 µM
same,IC50,[11],> 100 µM
"Nc1ncnc2c1ncn2[C@@H](C=O)O[C@@H](C=O)COP(=O)(O)OP(=O)(O)OP(=O)(O)O [o-ATP, the sodium salt of adenosine 5-triphosphate, oxidized with periodate]",ischaemic inward currents,[2],significantly reduced
same,increase in [Ca2+]i caused by ischaemia,[12],significantly blocked; also recorded: significantly reduced
same,OGD-induced damage at all developmental stages,[7],decreased; also recorded: protected
same,ischaemia-induced damage to optic nerves (LDH release),[7],prevented; also recorded: reduced
same,recovery of axon function (CAP area) after the ischaemic insult,[8],significantly improved
same,IC50,[13],5 µM
